For one data set, the system named is HepG2 cells. The data set is described as follows: In vitro cytotoxicity, MTT cell viability assay in HepG2 cells. It is filed as cell-based. The following applies: human, 7 days. The procedure, abridged:
(§1)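 Parental HepG2 cells in EMEM + 10% FBS were exposed to compounds (8 half-log dilutions, 30 μM to 1.0 nM) for 7 days at 37 °C, 5% CO2. MTT was then added for 3-4 h, formazan dissolved in DMSO and absorbance read at 492 nm; CC50 came from 4-parameter fits against vehicle controls.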

The subject of data set [1] is HBV replication in HepAD38 cells. The data set is described as follows: Anti-HBV activity in HepAD38 cells, extracellular HBV DNA by QPCR. The class given is cell-based, HBV (genotype D, serotype ayw). The procedure, abridged:
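Seven-day compound exposure (30 μM down to 10 nM, half-log steps) after tetracycline withdrawal induced HBV replication in HepAD38 cells. Extracellular viral DNA measured by QPCR (copies/mL via standard curve), normalised to DMSO wells; EC50 from 4-parameter non-linear regression.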

Data set [2] is described as follows: In vitro cytotoxicity, MTT cell viability assay in HepG2 cells. The class given is cell-based. Conditions: human, Cytotoxicity CC50. The procedure, abridged: as §1
Background: Formazan colour is commonly taken as a measure of viable cells.

Where [3] appears, read: Hepatitis B virus, HePAD38, 168 h, read-out: Anti-HBV EC50, HepAD38 cells, extracellular HBV DNA by QPCR, 7 days of incubation.

Like-named read-outs stand apart in the source and are kept apart here.

In the case of `Cc1cc(NC(=O)c2c(C)c(C(O)(C(=O)NC(C)(C)C)C(F)(F)F)c(C)n2C)ccc1F` (centres unmarked) [Example 155, 4-(3-(tert-butylamino)-1,1,1-trifluoro-2-hydroxy-3-oxopropan-2-yl)-N-(4-fluoro-3-methylphenyl)-1,3,5-trimethyl-1H-pyrrole-2-carboxamide], in the data set with HepG2 cells, the CC50 (as a rule, the concentration giving 50% cytotoxicity) was 5 to 30 µM. Further, the EC50 – broadly, the concentration that produces a half-maximal response – in data set [1] (read-out: Anti-HBV EC50, HepAD38 cells, extracellular HBV DNA by QPCR, 7 days of incubation) was less than 5 µM.

In data set [2], `Cc1cc(NC(=O)c2ccc(F)c(C(F)(F)C(=O)NC34CCC(N)(CC3)C4)c2)ccc1F` [Example 253, 3-(2-((4-aminobicyclo[2.2.1]heptan-1-yl)amino)-1,1-difluoro-2-oxoethyl)-4-fluoro-N-(4-fluoro-3-methylphenyl)benzamide] yielded a CC50 at 7 days greater than 30 µM. Further, the EC50 in data set [1] (setting [3]) is less than 5 µM.

Consider `Cc1ccc(C(=O)Nc2ccc(F)c(Cl)c2)cc1C(F)(F)C(=O)N1[C@@H]2CC[C@H]1C[C@H](O)C2` [Example 206, N-(3-chloro-4-fluorophenyl)-3-(1,1-difluoro-2-((1R,3s,5S)-3-hydroxy-8-azabicyclo[3.2.1]octan-8-yl)-2-oxoethyl)-4-methylbenzamide], for which the CC50 at 7 days in data set [2] was in the range of 5 to 30 µM. The EC50 in data set [1] (setting [3]) is less than 5 µM.

For the molecule `Cc1cc(NC(=O)c2ccc(F)c(C(F)(F)C(=O)N3[C@H]4CC[C@@H]3c3cn[nH]c3C4)c2)ccc1F` [Example 265, 3-(1,1-difluoro-2-((4R,7S)-1,4,5,6,7,8-hexahydro-4,7-epiminocyclohepta[c]pyrazol-9-yl)-2-oxoethyl)-4-fluoro-N-(4-fluoro-3-methylphenyl)benzamide], the CC50 at 7 days in data set [2] lay within 5 to 30 µM. Further, in data set [1] (setting [3]), the EC50 was less than 5 µM.

In turn, `Cn1ccc(C(=O)Nc2ccc(F)c(Cl)c2)c1C(F)(F)C(=O)N[C@@H]1CCOC1` [Example 143, (R)-N-(3-chloro-4-fluorophenyl)-2-(1,1-difluoro-2-oxo-2-((tetrahydrofuran-3-yl)amino)ethyl)-1-methyl-1H-pyrrole-3-carboxamide] showed a CC50 at 7 days in data set [2] greater than 30 µM. In addition, the 50% effective concentration (EC50) in data set [1] (setting [3]) lay in the range of 5 to 30 µM.

In turn, `Cc1cc(NC(=O)c2ccc(F)c(C(F)(F)C(=O)N3[C@@H]4CCC[C@H]3C[C@@H](O)C4)c2)ccc1F` [Example 216, 3-(1,1-difluoro-2-((1R,3r,5S)-3-hydroxy-9-azabicyclo[3.3.1]nonan-9-yl)-2-oxoethyl)-4-fluoro-N-(4-fluoro-3-methylphenyl)benzamide] had a CC50 at 7 days in data set [2] of 5 to 30 µM. In addition, in data set [1] (setting [3]), the EC50 is less than 5 µM.

In data set [2], `N#Cc1cc(NC(=O)c2ccc(F)c(C(F)(F)C(=O)N3CCC(O)C(F)(F)C3)c2)ccc1F` (centres unmarked) [Example 177, N-(3-cyano-4-fluorophenyl)-3-(2-(3,3-difluoro-4-hydroxypiperidin-1-yl)-1,1-difluoro-2-oxoethyl)-4-fluorobenzamide] came in with a CC50 at 7 days of 5 to 30 µM. Also, the EC50 in data set [1] (setting [3]) was less than 5 µM.

For the molecule `Cc1cc(NC(=O)c2cccc(C(F)(F)C(=O)N3CCC(O)CC3)c2F)ccc1F` [Example 92, 3-(1,1-difluoro-2-(4-hydroxypiperidin-1-yl)-2-oxoethyl)-2-fluoro-N-(4-fluoro-3-methylphenyl)benzamide], the CC50 at 7 days in data set [2] was 5 to 30 µM. Besides, the EC50 in data set [1] (setting [3]) was less than 5 µM.

On to `Cc1cc(NC(=O)c2cc(C(F)(F)C(=O)NC(C)(C)CO)n(C)c2)ccc1F` [Example 104, 5-(1,1-difluoro-2-((1-hydroxy-2-methylpropan-2-yl)amino)-2-oxoethyl)-N-(4-fluoro-3-methylphenyl)-1-methyl-1H-pyrrole-3-carboxamide], for which the CC50 at 7 days in data set [2] was greater than 30 µM. For the same molecule, the EC50 in data set [1] (setting [3]) is less than 5 µM.

Molecule `Cc1cc(NC(=O)c2ccc(F)c(C(F)(F)C(=O)N3[C@@H]4COC[C@H]3C[C@H](NS(C)(=O)=O)C4)c2)ccc1F` [Example 306, 3-(1,1-difluoro-2-((1R,5S,7r)-7-(methylsulfonamido)-3-oxa-9-azabicyclo[3.3.1]nonan-9-yl)-2-oxoethyl)-4-fluoro-N-(4-fluoro-3-methylphenyl)benzamide] came in with a CC50 at 7 days in data set [2] of 5 to 30 µM. Also, the EC50 in data set [1] (setting [3]) was less than 5 µM.

`Cc1cc(NC(=O)c2cc(C(F)(F)C(=O)NC(C)(C)C)n(C)n2)ccc1F` [Example 165, 5-(2-(tert-butylamino)-1,1-difluoro-2-oxoethyl)-N-(4-fluoro-3-methylphenyl)-1-methyl-1H-pyrazole-3-carboxamide] displayed a CC50 at 7 days in data set [2] greater than 30 µM. Further, the EC50 in data set [1] (setting [3]) is 5 to 30 µM.

In data set [2], `Cc1cc(NC(=O)c2ccc(F)c(C(F)(F)C(=O)N3CCC(NC(=O)CN4CCC(O)CC4)C(C)(C)C3)c2)ccc1F` (centres unmarked) [Example 301, 3-(1,1-difluoro-2-(4-(2-(4-hydroxypiperidin-1-yl)acetamido)-3,3-dimethylpiperidin-1-yl)-2-oxoethyl)-4-fluoro-N-(4-fluoro-3-methylphenyl)benzamide] returned a CC50 at 7 days of 5 to 30 µM. The EC50 in data set [1] (setting [3]) was less than 5 µM.

`Cc1cc(NC(=O)c2ccc(F)c(C(F)(F)C(=O)N3CCC(O)C(F)(F)C3)c2)ccc1F` (centres unmarked) [Example 77, 3-(2-(3,3-difluoro-4-hydroxypiperidin-1-yl)-1,1-difluoro-2-oxoethyl)-4-fluoro-N-(4-fluoro-3-methylphenyl)benzamide] displayed a CC50 at 7 days in data set [2] of 5 to 30 µM. In addition, in data set [1] (setting [3]), the EC50 is less than 5 µM.

In data set [2], `Cc1cc(NC(=O)c2ccc(F)c(C(F)(F)C(=O)N3[C@@H]4CC[C@H]3COC4)c2)ccc1F` [Example 213, 3-(2-((1R,5S)-3-oxa-8-azabicyclo[3.2.1]octan-8-yl)-1,1-difluoro-2-oxoethyl)-4-fluoro-N-(4-fluoro-3-methylphenyl)benzamide] registered a CC50 at 7 days greater than 30 µM. Besides, the EC50 in data set [1] (setting [3]) is less than 5 µM.

For the molecule `Cc1cc(NC(=O)c2ccn(C)c2C(F)(F)C(=O)N[C@@H]2CCCC[C@H]2O)ccc1F` [Example 128, 2-(1,1-difluoro-2-(((1R,2R)-2-hydroxycyclohexyl)amino)-2-oxoethyl)-N-(4-fluoro-3-methylphenyl)-1-methyl-1H-pyrrole-3-carboxamide], in data set [2], the CC50 at 7 days was greater than 30 µM. Also, in data set [1] (setting [3]), the EC50 is 5 to 30 µM.

Regarding `Cn1cc(NC(=O)c2ccc(F)c(C(F)(F)C(=O)N3CCC(O)(CO)CC3)c2)cn1` [Example 182, 3-(1,1-difluoro-2-(4-hydroxy-4-(hydroxymethyl)piperidin-1-yl)-2-oxoethyl)-4-fluoro-N-(1-methyl-1H-pyrazol-4-yl)benzamide], in data set [2], the CC50 at 7 days is greater than 30 µM. For the same molecule, the EC50 in data set [1] (setting [3]) was in the range of 5 to 30 µM.

As to `Cc1cc(NC(=O)c2cc(C(F)(F)C(=O)N[C@H]3CC[C@@H](O)CC3)n(C)c2)ccc1F` [Example 125, 5-(1,1-difluoro-2-(((1s,4s)-4-hydroxycyclohexyl)amino)-2-oxoethyl)-N-(4-fluoro-3-methylphenyl)-1-methyl-1H-pyrrole-3-carboxamide], the CC50 at 7 days in data set [2] was greater than 30 µM. Besides, in data set [1] (setting [3]), the EC50 was less than 5 µM.

Turning to `O=C(Nc1ccc(Cl)cc1)c1ccc(Cl)c(C(F)(F)C(=O)N2CCC(O)CC2)c1` [Example 39, 4-chloro-N-(4-chlorophenyl)-3-(1,1-difluoro-2-(4-hydroxypiperidin-1-yl)-2-oxoethyl)benzamide], the CC50 at 7 days in data set [2] lay within 5 to 30 µM. The EC50 in data set [1] (setting [3]) was in the range of 5 to 30 µM.

With `Cc1cc(NC(=O)c2c(C)c(C(O)(C(=O)NC(C)(C)C)C(F)(F)F)c(C)n2C)ccc1F` (centres unmarked) [Example 131, 4-(3-(tert-butylamino)-1,1,1-trifluoro-2-hydroxy-3-oxopropan-2-yl)-N-(4-fluoro-3-methylphenyl)-1,3,5-trimethyl-1H-pyrrole-2-carboxamide], the CC50 at 7 days in data set [2] was in the range of 5 to 30 µM. The EC50 in data set [1] (setting [3]) lay in the range of 5 to 30 µM.

Regarding `Cc1cc(NC(=O)c2ccc(F)c(C(F)(F)C(=O)N3[C@@H]4COC[C@H]3CC(=O)C4)c2)ccc1F` [Example 201, 3-(1,1-difluoro-2-oxo-2-((1R,5S)-7-oxo-3-oxa-9-azabicyclo[3.3.1]nonan-9-yl)ethyl)-4-fluoro-N-(4-fluoro-3-methylphenyl)benzamide], the CC50 at 7 days in data set [2] is 5 to 30 µM. For the same molecule, the EC50 in data set [1] (setting [3]) was less than 5 µM.

`Cc1cc(NC(=O)c2ccc([N+](=O)[O-])c(C(F)(F)C(=O)N3CCC(O)CC3)c2)ccc1F` [Example 298, 3-(1,1-difluoro-2-(4-hydroxypiperidin-1-yl)-2-oxoethyl)-N-(4-fluoro-3-methylphenyl)-4-nitrobenzamide]: the CC50 at 7 days in data set [2] fell in the range of 5 to 30 µM. In data set [1] (setting [3]), the 50% effective concentration (EC50) is less than 5 µM.

The molecule `Cc1cc(NC(=O)c2ccc(F)c(C(F)(F)C(=O)N3CCC(C)(O)CC3)c2)ccc1F` [Example 70, 3-(1,1-difluoro-2-(4-hydroxy-4-methylpiperidin-1-yl)-2-oxoethyl)-4-fluoro-N-(4-fluoro-3-methylphenyl)benzamide] yielded a CC50 at 7 days in data set [2] of 5 to 30 µM. Besides, in data set [1] (setting [3]), the EC50 was less than 5 µM.

Regarding `Cc1cc(NC(=O)c2ccc(F)c(C(F)(F)C(=O)N3C4CC[C@@H]3C[C@@H](C(=O)N3CCOCC3)C4)c2)ccc1F` [Example 260, 3-(1,1-difluoro-2-((1R,3s,5S)-3-(morpholine-4-carbonyl)-8-azabicyclo[3.2.1]octan-8-yl)-2-oxoethyl)-4-fluoro-N-(4-fluoro-3-methylphenyl)benzamide], the CC50 at 7 days in data set [2] is greater than 30 µM. For the same molecule, in data set [1] (setting [3]), the EC50 is less than 5 µM.

Turning to `Cn1ccc(C(=O)Nc2ccc(F)c(Cl)c2)c1C(F)(F)C(=O)NC1(C#N)CC1` [Example 147, N-(3-chloro-4-fluorophenyl)-2-(2-((1-cyanocyclopropyl)amino)-1,1-difluoro-2-oxoethyl)-1-methyl-1H-pyrrole-3-carboxamide], the CC50 at 7 days in data set [2] was greater than 30 µM. Further, in data set [1] (setting [3]), the EC50 was 5 to 30 µM.

For the molecule `Cc1cc(NC(=O)c2ccc(F)c(C(F)(F)C(=O)NCc3nccs3)c2)ccc1F` [Example 68, 3-(1,1-difluoro-2-oxo-2-((thiazol-2-ylmethyl)amino)ethyl)-4-fluoro-N-(4-fluoro-3-methylphenyl)benzamide], in data set [2], the CC50 at 7 days fell in the range of 5 to 30 µM. In addition, the EC50 in data set [1] (setting [3]) is less than 5 µM.

The values above are taken from patent publication US11247965B2 (VenatoRx Pharmaceuticals, Inc., priority 2017, dated 2022).
